Values of other authors, collected in patent US8637495B2, “Osteoarthritis diet formulations” (Nestec S.A., priority 2004, dated 2014).

How the values were obtained:
[1] = orally administered
[2] = system: human patients with OA of the knee

N[C@H]1C(O)O[C@H](CO)[C@@H](O)[C@@H]1O (some centres unmarked) [glucosamine, Glucosamine]
radiolabel detected in exhaled CO2 [1]: 70%
retained in tissue [1]: approximately 10%
fraction non-ionized ([1]; physiologic pH of the small intestine): More than 50%
clinical signs of OA ([2]; 1500 mg glucosamine per day, human, OA of the knee): significant improvement
long-term progression of OA ([2]; oral, two studies, patients followed for three years): efficiently inhibited
